Format in all cases: cell-based
The subject of test [1] is M. abscessus DCI #21. The experiment in a line: MIC, resazurin microtiter assay. To be noted: Mueller Hinton II; for MIC: Mycobacteroides abscessus, read-out: MIC M. abscessus DCI #21. On the technique in general: The colour change of resazurin is a common sign of viable cells or microbes.
Test [2] concerns M. chelonae ATCC 35752. The experiment in a line: MIC, resazurin microtiter assay. To be noted: for MIC: Mycobacteroides chelonae, ATCC35752, Mueller Hinton II, read-out: MIC M. chelonae ATCC 35752.
The subject of test [3] is M. avium 104. The experiment in a line: MIC, resazurin microtiter assay. The following applies: Mycobacterium avium, 104; Mueller Hinton II; read-out: MIC M. avium 104.
Test [4] deals with M. bolletii ATCC 14472. The experiment in a line: MIC, resazurin microtiter assay. The following applies: for MIC: Mycobacteroides abscessus, ATCC14472, Mueller Hinton II, read-out: MIC M. bolletii ATCC 14472.
Test [5] concerns M. abscessus ATCC 19977. The experiment in a line: MIC, resazurin microtiter assay. The following applies: Mueller Hinton II; for MIC: Mycobacteroides abscessus, ATCC19977, read-out: MIC M. abscessus ATCC 19977.
In test [6] the test system is M. smegmatis mc^2155. The experiment in a line: MIC, resazurin microtiter assay. The following applies: for MIC: Mycolicibacterium smegmatis, MC^2155, 7H9-ADC-0.05% Tween 80, read-out: MIC M. smeg. mc^2155.
The subject of test [7] is M. massiliense CIP 108297. The experiment in a line: MIC, resazurin microtiter assay. To be noted: for MIC: Mycobacteroides abscessus, CIP108297, Mueller Hinton II, read-out: MIC M. massiliense CIP 108297.
Test [8] concerns M. tuberculosis H37Rv mc^26206. The experiment in a line: microbe, parasite or virus in culture. To be noted: for MIC: Mycobacterium tuberculosis, H37RV, read-out: MIC M. tb H37 Rv (mc2-6206).
The subject of test [9] is M. intracellulare 1956. The experiment in a line: MIC, resazurin microtiter assay. To be noted: Mueller Hinton II; read-out: MIC M. avium Intracellulare 1956.
The subject of test [10] is M. xenopi WT. The experiment in a line: MIC, resazurin microtiter assay. To be noted: Mycobacterium xenopi, Mueller Hinton II; read-out: MIC M. xenopi WT.
For test [11], the system named is M. massiliense CRM 0019. The experiment in a line: MIC, resazurin microtiter assay. To be noted: for MIC: Mycobacteroides abscessus, CRM0019, Mueller Hinton II, read-out: MIC M. massiliense CRM 0019.

Structures are written as SMILES. ≈ marks a conversion by molar mass, not a printed value.

Regarding `CCC12CC3CC(C1)CC(NC(=O)c1cc4ccccc4[nH]1)(C3)C2` [Compound 6, N-(3-ethyl-1-adamantyl)-1H-indole-2-carboxamide], the MIC in test [1] is over 32 µg/mL; in [2] it was over 32 µg/mL; in [3], over 32 µg/mL; in test [4], over 32 µg/mL; in [5] it was over 32 µg/mL; in [6], over 20 µg/mL. Besides, the MIC in test [7] was over 32 µg/mL; in test [8], 1.25 µg/mL (≈ 3.88 µM); in test [9], over 32 µg/mL; in [10] it was 1 to 2 µg/mL (≈ 3.1 to 6.2 µM); in test [11] it was over 32 µg/mL.

On to `CC(NC(=O)c1cc2ccccc2[nH]1)C12CC3CC(CC(C3)C1)C2` (stereo not drawn) [Compound 7, N-(1-(1-adamantyl)ethyl)-1H-indole-2-carboxamide], for which the MIC is 16 µg/mL (≈ 49.6 µM) in [1]; 2 µg/mL (≈ 6.2 µM) in test [2]; over 32 µg/mL in [3]; 16 µg/mL (≈ 49.6 µM) in [4]; 16 µg/mL (≈ 49.6 µM) in [5]; over 20 µg/mL in test [6]. Also, the MIC in test [7] was 8 µg/mL (≈ 24.8 µM); in [8], over 5 µg/mL; in test [9] it was 32 µg/mL (≈ 99.2 µM); in [10] it was 8 µg/mL (≈ 24.8 µM); in test [11], 8 µg/mL (≈ 24.8 µM).

For `O=C(NCC12CC3CC(CC(C3)C1)C2)c1cc2ccccc2[nH]1` [Compound 8, N-(1-(1-adamantyl)methyl)-1H-indole-2-carboxamide], the MIC is 2 µg/mL (≈ 6.48 µM) in test [1]; 1 µg/mL (≈ 3.24 µM) in test [2]; over 32 µg/mL in test [3]; 2 µg/mL (≈ 6.48 µM) in [4]; 2 µg/mL (≈ 6.48 µM) in test [5]; over 20 µg/mL in [6]. Moreover, the MIC in test [7] is 2 µg/mL (≈ 6.48 µM); in test [8], over 5 µg/mL; in test [9] it was over 32 µg/mL; in [10] it was 4 µg/mL (≈ 13 µM); in [11], over 32 µg/mL.

On to `O=C(NC1C2CC3CC(C2)CC1C3)c1cc2ccccc2[nH]1` (stereo not drawn) [Compound 9, N-(2-adamantyl)-1H-indole-2-carboxamide], for which the MIC in test [1] was over 32 µg/mL; in test [2], over 32 µg/mL; in test [3] it was over 32 µg/mL; in [4], 32 µg/mL (≈ 109 µM); in test [5], over 32 µg/mL; in test [6], over 25 µg/mL. Besides, the MIC in [7] is over 32 µg/mL; in test [8] it was 0.39 µg/mL (≈ 1.32 µM); in test [9] it was over 32 µg/mL; in test [10], 2 µg/mL (≈ 6.79 µM); in [11], 32 µg/mL (≈ 109 µM).

In the case of `O=C(NC1CCCCCCC1)c1cc2ccccc2[nH]1` [Compound 10, N-cyclooctyl-1H-indole-2-carboxamide], the MIC in [1] was over 32 µg/mL; in test [2], over 32 µg/mL; in test [3], over 32 µg/mL; in test [4], 32 µg/mL (≈ 118 µM); in [5], over 32 µg/mL; in [6], 25 µg/mL (≈ 92.5 µM). Also, the MIC in test [7] was over 32 µg/mL; in test [8], 0.39 µg/mL (≈ 1.44 µM); in [9] it was over 32 µg/mL; in [10] it was 2 µg/mL (≈ 7.4 µM); in test [11], 32 µg/mL (≈ 118 µM).

Consider `CC1CCC(NC(=O)c2cc3ccccc3[nH]2)CC1` (stereo not drawn) [Compound 15], for which the “MIC M. abscessus DCI #21” value in [1] was over 32 µg/mL. In addition, the “MIC M. chelonae ATCC 35752” value in test [2] (Mueller Hinton II) was found to be 16 µg/mL (≈ 62.4 µM). In addition, the MIC in test [3] was over 32 µg/mL; in test [9], over 32 µg/mL; in [10], 16 µg/mL (≈ 62.4 µM). In addition, the “MIC M. bolletii ATCC 14472” value in [4] (Mueller Hinton II) turned out to be 16 µg/mL (≈ 62.4 µM). The “MIC M. abscessus ATCC 19977” value in test [5] was over 32 µg/mL. The “MIC M. smeg. mc^2155” value in test [6] (7H9-ADC-0.05% Tween 80) was 12.5 µg/mL (≈ 48.8 µM). Also, the “MIC M. massiliense CIP 108297” value in test [7] (Mueller Hinton II) is 16 µg/mL (≈ 62.4 µM). The “MIC M. tb H37 Rv (mc2-6206)” value in test [8] was found to be 5 µg/mL (≈ 19.5 µM). In addition, the “MIC M. massiliense CRM 0019” value in test [11] (Mueller Hinton II) was 16 µg/mL (≈ 62.4 µM).

The values above are taken from patent publication US10383848B2, “Indole-based therapeutics” (Creighton University, priority 2016, dated 2019).
